Measured values reported in patent US20100099614A1, “Antimicrobial Peptides and Methods of Use” (priority 2008, published 2010).
Where two headings read alike, the source gives them in different places.

Tested on: multiple drug resistant M. tuberculosis strain vertulo
Settings: for Anti-tuberculosis activity to multi-drug resistant strain (vertulo) Fold (compared to D4): relative to D4

Compound | Anti-tuberculosis activity to multi-drug resistant strain (vertulo) MIC [µg/mL] | Anti-tuberculosis activity to multi-drug resistant strain (vertulo) MIC (multiple drug resistant strain vertulo) [µM] | Anti-tuberculosis activity to multi-drug resistant strain (vertulo) Fold (compared to D4) [fold]
CC[C@@H](C)[C@@H](NC(=O)[C@@H](C)NC(=O)[C@@H](CCCCN)NC(=O)[C@@H](CC(C)C)NC(=O)[C@@H](C)NC(=O)[C@H](NC(=O)[C@@H](Cc1c[nH]cn1)NC(=O)[C@@H](CC(C)C)NC(=O)[C@H](NC(=O)[C@H](NC(=O)[C@@H](CCCCN)NC(=O)[C@@H](CCCCN)NC(=O)[C@@H](C)NC(=O)[C@@H](CO)NC(=O)[C@@H](CCCCN)NC(=O)[C@@H](Cc1ccccc1)NC(=O)[C@H](NC(=O)[C@@H](CCCCN)NC(=O)[C@@H](CC(C)C)NC(=O)[C@@H](Cc1ccccc1)NC(=O)[C@@H](CO)NC(=O)[C@@H](CCCCN)NC(=O)[C@@H](Cc1c[nH]c2ccccc12)NC(=O)[C@@H](CCCCN)NC(C)=O)[C@H](C)O)[C@H](C)O)C(C)C)[C@H](C)O)C(=O)N[C@H](CO)C(=O)N[C@H](CO)C(N)=O [D1] | 57 | 19.1 | >8.4
CC[C@@H](C)[C@@H](NC(=O)[C@@H](CC(C)C)NC(=O)[C@@H](CCCCN)NC(=O)[C@@H](CC(C)C)NC(=O)[C@@H](CC(C)C)NC(=O)[C@H](NC(=O)[C@@H](Cc1c[nH]cn1)NC(=O)[C@@H](CC(C)C)NC(=O)[C@@H](CCCCN)NC(=O)[C@H](NC(=O)[C@@H](CCCCN)NC(=O)[C@@H](CCCCN)NC(=O)[C@@H](CC(C)C)NC(=O)[C@@H](CO)NC(=O)[C@@H](CCCCN)NC(=O)[C@@H](Cc1ccccc1)NC(=O)[C@H](NC(=O)[C@@H](CCCCN)NC(=O)[C@@H](CC(C)C)NC(=O)[C@@H](Cc1ccccc1)NC(=O)[C@@H](CO)NC(=O)[C@@H](CCCCN)NC(=O)[C@@H](Cc1c[nH]c2ccccc12)NC(=O)[C@@H](CCCCN)NC(C)=O)[C@H](C)O)[C@H](C)O)[C@H](C)O)C(=O)N[C@H](CO)C(=O)N[C@H](CO)C(N)=O [D5] |  |  | >10.3
